Values of other authors, collected in patent US4127530A, “Novel heneicosapeptides, intermediates therefor and pharmaceutical compositions and methods employing said heneicosapeptides” (priority 1977, dated 1978).

How the values were obtained:
[1] = tested on: partially purified brain opiate receptor sites; details: for opioid activity in binding to partially purified brain opiate receptor sites: fragments isolated from the pituitary
[2] = injected directly into the brain of the rat

Substance	binding to partially purified brain opiate receptor sites ([1]; natural peptide)	analgesic activity [2]	opioid activity in binding to partially purified brain opiate receptor sites [1]
H-Tyr-Gly-Gly-Phe-Met-OH [methionine enkephalin]	binds stereo-specifically	weak analgesic agent of short duration	–
α-endorphin	–	–	potent opioid activity
β-endorphin: β-lipotropin fragment 61-91	–	–	potent opioid activity
γ-endorphin	–	–	potent opioid activity
